This is an account of results in patent US20200325178A1, “PEPTIDE NUCLEIC ACID MOLECULES FOR TREATMENT OF GRAM POSITIVE BACTERIAL INFECTION” (priority 2017, published 2020).

The test system of data set [1] is MSSA clinical isolates and ATCC strains. Briefly: MIC and MBC against MSSA clinical isolates and ATCC strains. The format is cell-based, Staphylococcus aureus. Details: MIC: unit not given here. As to the method:
(§1) Bioscreen-C instrument was used to detect the MIC and MBC of PNA-CPP derivatives against S. aureus MSSA strains. Different concentrations of PNA-CPP derivatives were prepared in 10 mM of sodium bicarbonate buffer pH-7.4 and added to ˜5.0 Log 10 CFUs in a Honey comb Bioscreen-C plate.
After the growth curve assays, the number of colony forming units (CFU) were counted to determine the MIC and MBC of each PNA-CPP derivative against MSSA.
Minimum inhibitory concentration (MIC) analyses were performed as described in Clinical and Laboratory Standards Institute, Methods for Dilution Antimicrobial Susceptibility Tests for Bacteria that Grow Aerobically, 7th ed.; Approved Standard M7-A7; CLSI: Wayne, Pa., USA, 2006; volume 26, No. 2. Vancomycin and Oxacillin were used as controls. MIC was determined as the lowest concentration of agent that inhibits bacterial growth detected at A420-580 nm.

In data set [2] the test system is S. aureus (ATCC BAA-1556). Briefly: Murine thigh infection model. It is filed as in vivo. To be noted: neutropenic CD-1 mice; 25 mg/kg, 0.2 ml SC, +1 hr; 24 hrs. Here is the method: Female 5-6 week old CD-1 (18-22 gm) were used in this study. Mice were quarantined for 48 hours before use and housed in groups of 5 with free access to food and water during the study.
The animals were made neutropenic by administration of cyclophosphamide on Days −4 and −1. On Days −4 150 mg/kg of cyclohsphamide administered by intraperitoneal route and 100 mg/kg was administered on Days −1. Days listed are referenced from the date of infection (study day-Day 0).
On Day 0, animals were inoculated intramuscularly (0.1 ml/thigh) with ˜1×10^5 CFU/mouse of S. aureus (ATCC BAA-1556) into right thigh. […] Group-3 of mice were administered with vancomycin at 25 mg/kg via subcutaneous route. Group-4 of mice administered with buffer and group-5 used as the inoculation control.
Mice were euthanized by CO2 inhalation and thighs were removed, and placed in 2 ml of sterile PBS, homogenized, serially diluted and plated to determine the CFU counts. Plates were incubated 18-24 hours and CFUs were counted.
Colony were counted and the number of colonies is converted to CFU/thigh by multiplying the number of colonies by the volume of the thigh homogenate spotted and the dilution at which the colonies were counted (5-50 colonies/spot). All count data were transformed into logo CFU/thigh for calculation of means and standard deviations.

The next data set relates to S. aureus MSSA strains. Briefly: Bioscreen-C dose response growth curve of MSSA over 24 hours. The format is cell-based, Staphylococcus aureus. To be noted: HCl salts, doses from 100 μg downwards, 10 mM sodium bicarbonate buffer pH-7.4, OD 420-580 nm. Here is the method:
as §1
Compound I-V were assayed against MSSA. FIG. 12-16 show a dose response growth curve of MSSA in presence of increasing concentrations of Compound I-HCl (FIG. 12), Compound II-HCl (FIG. 13), Compound III-HCl (FIG. 14), Compound IV-HCl (FIG. 15), and Compound V-HCl (FIG. 16), determined in a Bioscreen-C spectrophotometer.

Data set [3] concerns MRSA clinical isolates and ATCC strains. Description: MIC and MBC against MRSA clinical isolates and ATCC strains. Details: unit not given here. The format is cell-based, Staphylococcus aureus. As to the method: Bioscreen-C instrument was used to detect the MIC and MBC of PNA-CPP derivatives against S. aureus MRSA strains. Different concentration of PNA-CPP derivatives were prepared in 10 mM of sodium bicarbonate buffer pH-7.4 and added to ˜5.0 Log 10 CFUs in a Honey comb Bioscreen-C plate.
After the growth curve assays, the number of colony forming units (CFU) were counted to determine the MIC and MBC of each PNA-CPP derivative against MRSA.
Minimum inhibitory concentration (MIC) analyses were performed as described in Clinical and Laboratory Standards Institute, Methods for Dilution Antimicrobial Susceptibility Tests for Bacteria that Grow Aerobically, 7th ed.; Approved Standard M7-A7; CLSI: Wayne, Pa., USA, 2006; volume 26, No. 2. […] MIC was determined as the lowest concentration of agent that inhibits bacterial growth detected at A420-580 nm.

For the next data set, the system named is MSSA. Description: In vitro assay of emergence of resistance, MSSA, 8 days. Conditions: 6.25 μg (twice MBC) in one ml Mueller Hinton broth, 37° C., through Day 8. It is filed as cell-based, S. aureus. As to the method: (§2) To determine the development of resistance in MRSA and MSSA strains against Compound I-HCl and Compound IV-HCl, an in vitro assay was performed. Twice the amount of MBC of Compound I-HCl (6.25 μg) and Compound IV-HCl (6.25 μg) were mixed with ˜5.0 log 10 CFUs in one ml of Mueller Hinton broth and incubated for 8 days at 37° C. Eight tubes of culture were used for each drug and bacterial strains. At 24 hours of interval, culture tubes were centrifuged and spent media were replaced with fresh media in presence of Compound I-HCl and Compound IV-HCl and further incubated to observe the growth of S. aureus strains. At 24 hours interval, one set of culture tube exposed to drugs were selected and a fraction of the culture used to plate on agar plates to observe the reduction of CFU counts as compared to untreated control. The rest of the culture samples were allowed to grow without any drug for additional 24 hours to observe the growth of S. aureus strains. One set of culture tubes without drug was used as the positive control.
The assays above were also performed using MSSA strains and Compounds I and IV.

A short description of data set [4]: Single ascending intravenous dose tolerability (MTD) in mice. The format is in vivo. Conditions: 10 mg/kg single intravenous bolus dose. Here is the method:
Single ascending intravenous (IV) dose study was performed to determine tolerability of the drug in mice.
Initially, Compound I-HCl and Compound IV-HCl were administered with a 10 mg/kg intravenous bolus dose using a 10 mL/kg dose volume (0.2 mL) and observed the effects before proceeding to the next higher dose. […] However, higher concentration (>15 mg/kg) had shown adverse effect and death in mice within 30 mins of administration of the drug.

The test system of the next data set is MRSA. Description: In vitro assay of emergence of resistance, MRSA, 8 days. Conditions: 6.25 μg (twice MBC) in one ml Mueller Hinton broth, 37° C., through Day 8. The format is cell-based, S. aureus. As to the method: as §2
[5] abbreviates: MSSA table, isolate MRSA#16 [sic].
The mark [6] stands for this setting: MSSA table, isolate MRSA#25 [sic].
The mark [7] stands for this setting: MSSA table, isolate MRSA#27 [sic].
Setting [8] is: MSSA table, isolate MRSA#34 [sic].
Where [9] appears, read: MSSA table, isolate MRSA#38 [sic].
Where [10] appears, read: MSSA table, isolate MRSA#57 [sic].
Setting [11] is: MSSA table, isolate MRSA#60 [sic].
Setting [12] is: MSSA table, isolate printed MRSA#49.
Where [13] appears, read: MSSA table, isolate printed MRSA#61.

For the compound `Cc1onc(-c2ccccc2)c1C(=O)N[C@@H]1C(=O)N2[C@@H]1SC(C)(C)[C@@H]2C(=O)O` [Oxacillin, reference compound], the MIC was 2 ∞g in data set [1] (setting [5]); 2 ∞g in data set [1] (setting [6]); 2 ∞g in data set [1] (setting [7]); 2 ∞g in data set [1] (setting [8]); 2 ∞g in data set [1] (setting [9]); 2 ∞g in data set [1] (MSSA table, isolate MRSA#55). The MIC is given as 4 ∞g in data set [1] (setting [10]); 2 ∞g in data set [1] (setting [11]); 2 ∞g in data set [1] (setting [12]); 2 ∞g in data set [1] (setting [13]); <2 ∞g in data set [1] (strain BAA 1721).

Turning to `CN[C@H](CC(C)C)C(=O)N[C@H]1C(=O)N[C@@H](CC(N)=O)C(=O)N[C@H]2C(=O)N[C@H]3C(=O)N[C@H](C(=O)N[C@H](C(=O)O)c4cc(O)cc(O)c4-c4cc3ccc4O)[C@H](O)c3ccc(c(Cl)c3)Oc3cc2cc(c3O[C@@H]2O[C@H](CO)[C@@H](O)[C@H](O)[C@H]2O[C@H]2C[C@](C)(N)[C@H](O)[C@H](C)O2)Oc2ccc(cc2Cl)[C@H]1O` [Vancomycin, reference compound], the MIC is 5 ∞g in data set [1] (setting [5]); 10 ∞g in data set [1] (setting [6]); 10 ∞g in data set [1] (setting [7]); 5 ∞g in data set [1] (setting [8]); 10 ∞g in data set [1] (setting [9]); 10 ∞g in data set [1] (MSSA table, isolate MRSA#55). For the same compound, the MIC is given as 20 ∞g in data set [1] (setting [10]); 10 ∞g in data set [1] (setting [11]); 10 ∞g in data set [1] (setting [12]); 5 ∞g in data set [1] (setting [13]); 10 ∞g in data set [1] (strain BAA 1721). Also, the “Mean Log 10 CFU/Thigh” value in data set [2] is recorded as 4.39 Log 10 CFU/Thigh. Also, the “Mean Log 10 Change vs. 1 hr” value in data set [2] is −1.23 Log 10. Besides, the “Mean Log 10 Change vs. 24 hr (vehicle)” value in data set [2] is reported as −4.14 Log 10.

“Compound II: PNA-CPP conjugate: PNA SEQ ID NO: 51, AEA linker, CPP BXRXRRXRRXRRXR; FIG. 2 (CGTCATACGCGGTCC; all peptide nucleic acid (PNA); PNA conjugated to cell-penetrating peptide BXRXRRXRRXRRXR via AEA linker, end not given here)”: the “lowest dose at which no MSSA growth was observed (growth curve)” value in the data set with S. aureus MSSA strains was 6.25 µg. For the same compound, the MBC in data set [1] (setting [5]) is 3.25 ∞g; in data set [1] (setting [6]), 3.25/3.25 ∞g; in data set [1] (setting [7]), 1.56 ∞g; in data set [1] (setting [8]), 3.25/3.25 ∞g; in data set [1] (setting [9]), 3.25/3.25 ∞g; in data set [1] (MSSA table, isolate MRSA#55), 3.25/3.25 ∞g. Further, the MBC in data set [1] (setting [10]) is on record as 3.25 ∞g; in data set [1] (setting [11]) it was 1.56 ∞g; in data set [1] (setting [12]), 3.25/3.25 ∞g; in data set [1] (setting [13]), 1.56 ∞g; in data set [1] (strain BAA 1721), 1.56 ∞g; in data set [3] (isolate MRSA#1), 3.25. The MBC in data set [3] (isolate MRSA#3) turned out to be 3.25; in data set [3] (isolate MRSA#6), 3.25; in data set [3] (isolate MRSA#15), 3.25; in data set [3] (isolate MRSA#28) it was 3.25; in data set [3] (isolate MRSA#31), 3.25; in data set [3] (isolate MRSA#37), 1.56. The MBC in data set [3] (isolate MRSA#39) turned out to be 3.25; in data set [3] (isolate MRSA#42) it was 1.56; in data set [3] (isolate MRSA#43) it was 1.56; in data set [3] (strain USA 300), 1.56. Also, the MIC was 1.56 ∞g in data set [1] (setting [5]); 3.25/3.25 ∞g in data set [1] (setting [6]); 0.78 ∞g in data set [1] (setting [7]); 3.25/3.25 ∞g in data set [1] (setting [8]); 3.25/3.25 ∞g in data set [1] (setting [9]); 3.25/3.25 ∞g in data set [1] (MSSA table, isolate MRSA#55). The MIC was 1.56 ∞g in data set [1] (setting [10]); 0.78 ∞g in data set [1] (setting [11]); 3.25/3.25 ∞g in data set [1] (setting [12]); 0.78 ∞g in data set [1] (setting [13]); 0.78 ∞g in data set [1] (strain BAA 1721); 1.56 in data set [3] (isolate MRSA#1). For the same compound, the MIC is reported as 1.56 in data set [3] (isolate MRSA#3); 1.56 in data set [3] (isolate MRSA#6); 1.56 in data set [3] (isolate MRSA#15); 1.56 in data set [3] (isolate MRSA#28); 1.56 in data set [3] (isolate MRSA#31); 0.78 in data set [3] (isolate MRSA#37). Besides, the MIC in data set [3] (isolate MRSA#39) was 1.56; in data set [3] (isolate MRSA#42) it was 0.78; in data set [3] (isolate MRSA#43) it was 0.78; in data set [3] (strain USA 300), 0.78.

Consider “Compound IV: PNA-CPP conjugate: PNA SEQ ID NO: 51, AEEA linker, homo-arginine CPP BXhRXhRhRXhRhRXhRhRXhR; FIG. 4 (CGTCATACGCGGTCC; all peptide nucleic acid (PNA); homo-arginine cell-penetrating peptide attached via AEEA linker, further chemistry not fully specified)”, for which the “lowest dose at which no MSSA growth was observed (growth curve)” value with S. aureus MSSA strains was 6.25 µg. Also, in the data set on MSSA, the “MSSA CFU counts and emergence of resistant strains” value is listed as “reduced MSSA CFUs without emergence of resistant strains”. The tolerability in mice entry in data set [4] is recorded as “well tolerated”. The “MRSA CFU counts and emergence of resistant strains” value in the data set with MRSA is reported as “reduced MRSA CFUs without emergence of resistant strains”.

“Compound V: PNA-CPP conjugate: PNA SEQ ID NO: 51, AEEA linker, D-arginine CPP BXdRXdRdRXdRdRXdRdRXdR; FIG. 5 (CGTCATACGCGGTCC; all peptide nucleic acid (PNA); PNA conjugated to D-arginine cell-penetrating peptide via AEEA linker, end not given here, further chemistry not fully specified)”: in the data set on S. aureus MSSA strains, the “lowest dose at which no MSSA growth was observed (growth curve)” value stood at 25 µg.
